Measured values published in patent US4138554A, “7-[D-α-(4-Hydroxy-1,5-naphthyridine-3-carboxamido)-α-phenyl (and p-hydroxyphenyl)acetamido]-3-carbamoyloxymethyl-3-cephem-4-carboxylic acids” (priority 1977, dated 1979).
Values after ≈ are worked out from the molar mass of the structure shown. Like-named read-outs stand apart in the source and are kept apart here.

How the values were obtained:
Format in all cases: cell-based
Klebsiella sp. = assay: MIC by serial two-fold agar dilution (Mueller-Hinton agar), Klebsiella sp.; details: Klebsiella sp. A20452, Table 6; read-out: MIC
Method: (§1) Minimum inhibitory concentrations (MIC) of BB-S520 were determined by serial two-fold agar dilution method using Steers' apparatus on Meuller-Hinton agar plate against 31 test organisms for the primary screening and also against 61 strains of Pseudomonas aeruginosa for the secondary evaluation. The results are shown in Table 1 and Table 2 along with those of BB-S514 and sulbenicillin.
(§2) Minimum inhibitory concentrations (MIC) of cephalosporins in the present study were determined by serial two-fold agar dilution method using Steers' apparatus on Mueller-Hinton agar plate against 31 test organisms for the primary screening and also against 61 strains of Pseudomonas aeruginosa for the secondary evaluation.

E. coli = assay: MIC by serial two-fold agar dilution (Mueller-Hinton agar), E. coli; details: Escherichia coli, read-out: MIC
Method: as §1, §2

S. enteritidis = assay: MIC by serial two-fold agar dilution (Mueller-Hinton agar), S. enteritidis; details: Salmonella enterica; S. enteritidis A9531, Table 6; read-out: MIC
Method: as §1, §2

S. marcescens = assay: MIC by serial two-fold agar dilution (Mueller-Hinton agar), S. marcescens; details: Serratia marcescens; S. marcescens A20019, Table 6; read-out: MIC
Method: as §1, §2

S. aureus = assay: MIC by serial two-fold agar dilution (Mueller-Hinton agar), S. aureus; details: Staphylococcus aureus
Method: as §1, §2

P. aeruginosa = assay: MIC by serial two-fold agar dilution (Mueller-Hinton agar), P. aeruginosa, primary screening
Method: as §1, §2

P. vulgaris = assay: MIC by serial two-fold agar dilution (Mueller-Hinton agar), P. vulgaris; details: Proteus vulgaris; P. vulgaris A9539, Table 6; read-out: MIC
Method: as §1, §2

Pseudomonas sp. = assay: MIC by serial two-fold agar dilution (Mueller-Hinton agar), Pseudomonas sp.; details: Pseudomonas sp. A20358, Table 6
Method: as §2

K. pneumoniae = assay: MIC by serial two-fold agar dilution (Mueller-Hinton agar), K. pneumoniae; details: Klebsiella pneumoniae, K. pneumoniae A9977, Table 6
Method: as §1, §2

P. morganii = assay: MIC by serial two-fold agar dilution (Mueller-Hinton agar), P. morganii; details: Morganella morganii; P. morganii A9553, Table 6; read-out: MIC
Method: as §1, §2

P. mirabilis = assay: MIC by serial two-fold agar dilution (Mueller-Hinton agar), P. mirabilis; details: Proteus mirabilis; P. mirabilis A9900, Table 6; read-out: MIC
Method: as §1, §2

E. cloacae = assay: MIC by serial two-fold agar dilution (Mueller-Hinton agar), E. cloacae; details: Enterobacter cloacae
Method: as §1, §2

CC1(C)S[C@@H]2[C@H](NC(=O)C(C(=O)O)c3ccccc3)C(=O)N2[C@H]1C(=O)O (stereo partly shown) [Carbenicillin] gave an MIC (Klebsiella sp.) of 6.3 µg/mL (≈ 16.6 µM), an MIC (E. coli; E. coli A9435, Table 6) of 6.3 µg/mL (≈ 16.6 µM) and an MIC (E. coli; E. coli A9844, Table 6) of 0.2 µg/mL (≈ 0.529 µM). For the same compound, the MIC (E. coli; E. coli A10664, Table 6) was 0.8 µg/mL (≈ 2.11 µM), the MIC (E. coli; E. coli A20366, Table 6) was greater than 100 µg/mL and the MIC (E. coli; E. coli A20520, Table 6) was 3.1 µg/mL (≈ 8.19 µM). For the same compound, the MIC (E. coli; E. coli A20732, Table 6) was 100 µg/mL (≈ 264 µM), the MIC (E. coli; E. coli A20898, Table 6) was greater than 100 µg/mL and the MIC (E. coli; E. coli Juhl A15119, Table 6) was 1.6 µg/mL (≈ 4.23 µM). For the same compound, the MIC (E. coli; E. coli NIHJ, Table 6) was 0.4 µg/mL (≈ 1.06 µM), the MIC (S. enteritidis) was 0.8 µg/mL (≈ 2.11 µM) and the MIC (S. marcescens) was 3.1 µg/mL (≈ 8.19 µM). It also gave an MIC (S. aureus; S. aureus BX-1633 A9606, Table 6, read-out: MIC) of 3.1 µg/mL (≈ 8.19 µM), an MIC (S. aureus; S. aureus Smith A9537, Table 6, read-out: MIC) of 0.2 µg/mL (≈ 0.529 µM) and an MIC (S. aureus; S. aureus Smith A15907, Table 6) of 25 µg/mL (≈ 66.1 µM). It also gave an MIC (S. aureus; S. aureus Smith A20239, Table 6, read-out: MIC) of 3.1 µg/mL (≈ 8.19 µM), an MIC (S. aureus; S. aureus Smith A20240, Table 6, read-out: MIC) of 6.3 µg/mL (≈ 16.6 µM) and an MIC (S. aureus; S. aureus Smith A20701, Table 6, read-out: MIC) of 25 µg/mL (≈ 66.1 µM). For the same compound, the MIC (P. aeruginosa; P. aeruginosa A20229, Table 6) was 12.5 µg/mL (≈ 33 µM), the MIC (P. aeruginosa; Pseudomonas aeruginosa) was 12.5 µg/mL (≈ 33 µM) and the MIC (P. aeruginosa; Pseudomonas aeruginosa, P. aeruginosa A9843, Table 6, read-out: MIC) was 25 µg/mL (≈ 66.1 µM). It also gave an MIC (P. aeruginosa; Pseudomonas aeruginosa, P. aeruginosa A9930, Table 6, read-out: MIC) of 25 µg/mL (≈ 66.1 µM), an MIC (P. aeruginosa; Pseudomonas aeruginosa, P. aeruginosa A20717, Table 6, read-out: MIC) of 100 µg/mL (≈ 264 µM) and an MIC (P. vulgaris) of 3.1 µg/mL (≈ 8.19 µM). The MIC (Pseudomonas sp.) was 6.3 µg/mL (≈ 16.6 µM), the MIC (K. pneumoniae) was 3.1 µg/mL (≈ 8.19 µM) and the MIC (P. morganii) was greater than 100 µg/mL. The MIC (P. mirabilis) was 0.4 µg/mL (≈ 1.06 µM), the MIC (E. cloacae; E. cloacae A9656, Table 6) was 3.1 µg/mL (≈ 8.19 µM) and the MIC (E. cloacae; E. cloacae A9657, Table 6) was 12.5 µg/mL (≈ 33 µM). It also gave an MIC (E. cloacae; E. cloacae A9659, Table 6) of 3.1 µg/mL (≈ 8.19 µM).
